Patent US20020137929A1, “1 - (3-heterocyclylphenyl) isothiourea, -isourea, -guanidine and -amidine herbicidal agents” (Intellectual Property Department, BASF Aktiengesellschaft, priority 1998, published 2002)

Columns and labels:
[1] = test system: ABUTH (Velvetleaf); assay: Postemergence herbicidal evaluation; type: in vivo, Abutilon theophrasti; details: postemergence
Method in brief: (§1)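 Rate range approx. 0.0156–0.500 kg/ha. Foliar application at 40 psi to ~2-week seedlings; surfactant 0.5% TWEEN 20 in 50/50 acetone/water. Evaluation 4–5 wk post-treatment by 0–9 visual injury score, means of replicate tests.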

[2] = test system: SETVI (Foxtail, Green); assay: Preemergence herbicidal evaluation; type: in vivo, Setaria viridis; details: rated 4-5 weeks after treatment; for SETVI rating: preemergence, 0-9 scale
Method in brief: (§2)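 Greenhouse preemergence test: seed-soil mix sown on ~1 inch soil; aqueous acetone spray at equivalent of ~0.0156–0.500 kg/ha; greenhouse-held and watered; scored 0–9 visually at 4–5 weeks.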

[3] = test system: IPOHE (Morningglory, Ivyleaf); assay: Preemergence herbicidal evaluation; type: in vivo, Ipomoea hederacea; details: rated 4-5 weeks after treatment; for IPOHE rating: preemergence, 0-9 scale
Method in brief: as §2

[4] = test system: MOOVA (Monochoria); assay: Preemergence weed control under flooded paddy conditions; type: in vivo, Monochoria vaginalis; details: rated 3-4 weeks after treatment
Method in brief: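 Ratings on a 0-9 visual scale cover stand, vigor, malformation, size, chlorosis and overall appearance relative to a control, taken three to four weeks post-treatment. Application was into flood water over freshly sown silt loam at roughly 0.0313 to 0.500 kg/ha.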

[5] = test system: CHEAL (Lambsquarters, Common); assay: Preemergence herbicidal evaluation; type: in vivo, Chenopodium album; details: rated 4-5 weeks after treatment; for CHEAL rating: preemergence, 0-9 scale
Method in brief: as §2

[6] = test system: CYPIR (Rice Flatsedge); assay: Postemergence weed control under flooded paddy conditions; type: in vivo, Cyperus iria; details: postemergence weeds, rated 3 to 4 weeks after treatment
Method in brief: (§3)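 Containers holding 3–5 cm weeds and rice at 1.5–2.5 leaves are flooded to 1.5–3 cm above soil. Compound in 50/50 v/v aqueous/acetone is then added directly to the water, about 0.0313–0.500 kg/ha. Plants are kept in the greenhouse and rated 0–9 visually at 3–4 weeks.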

[7] = test system: ECHORC (Watergrass (Calif.)); assay: as above; type: in vivo, Echinochloa oryzoides; details: postemergence weeds, rated 3 to 4 weeks after treatment
Method in brief: as §3

[8] = test system: TRZAWR (Wheat, Winter, cv Riband); assay: Preemergence herbicidal evaluation; type: in vivo, Triticum aestivum; details: rated 4-5 weeks after treatment; for TRZAWR rating: preemergence, 0-9 scale
Method in brief: as §2

[9] = test system: ORYSAT (Rice, Tebonnet); assay: Preemergence herbicidal evaluation; type: in vivo, Oryza sativa, (L.) Tebonnet; details: rated 4-5 weeks after treatment; for ORYSAT rating: preemergence, 0-9 scale
Method in brief: as §2

[10] = test system: TRZAWR (Wheat, Winter, cv Riband); assay: Postemergence herbicidal evaluation; type: in vivo, Triticum aestivum; details: postemergence
Method in brief: as §1

[11] = test system: ECHORC (Watergrass (Calif.)); assay: Preemergence weed control under flooded paddy conditions; type: in vivo, Echinochloa oryzoides; details: rated 3-4 weeks after treatment
Method in brief: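 Seeds or propagules sown in silt loam kept flooded 1.5-3 cm; compounds in 50/50 acetone/water pipetted into flood water at about 0.0313 to 0.500 kg/ha. Greenhouse; visual 0-9 rating versus untreated control 3-4 weeks after treatment.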

[12] = test system: IPOHE (Morningglory, Ivyleaf); assay: Postemergence herbicidal evaluation; type: in vivo, Ipomoea hederacea; details: postemergence
Method in brief: as §1

[13] = test system: ECHCG (Barnyardgrass); assay: Preemergence herbicidal evaluation; type: in vivo, Echinochloa crus-galli; details: rated 4-5 weeks after treatment; for ECHCG rating: preemergence, 0-9 scale
Method in brief: as §2

`Cn1c(C(F)(F)F)cc(=O)n(-c2cc(N=C3SCC(=O)N3CC(=O)OCC#N)c(Cl)cc2F)c1=O` [Compound 109, 2-{{2-Chloro-5-[3,6-dihydro-3-methyl-2,6-dioxo-4-(trifluoromethyl)-1(2H)-pyrimidinyl]-4-fluorophenyl}imino}-4-oxo-3-thiazolidineacetic acid, ester with glycolonitrile] was tested, and the “herbicidal rating ABUTH” value ([1]; rate 0.0158 kg/ha) was 9.0, the “herbicidal rating ABUTH” value ([1]; rate 0.0315 kg/ha) was 9.0 and the “herbicidal rating ABUTH” value ([1]; rate 0.0630 kg/ha) was 9.0. For the same compound, the “Preemergence herbicidal rating SETVI” value ([2]; rate 0.0156 kg/ha) was 5.5, the “Preemergence herbicidal rating SETVI” value ([2]; rate 0.0313 kg/ha) was 6.0 and the “Preemergence herbicidal rating SETVI” value ([2]; rate 0.0625 kg/ha) was 9.0. For the same compound, the “Preemergence herbicidal rating SETVI” value ([2]; rate 0.1250 kg/ha) was 9.0, the “Preemergence herbicidal rating SETVI” value ([2]; rate 0.2500 kg/ha) was 9.0 and the “Preemergence herbicidal rating SETVI” value ([2]; rate 0.5000 kg/ha) was 9.0. The “Preemergence herbicidal rating IPOHE” value ([3]; rate 0.0156 kg/ha) was 2.0, the “Preemergence herbicidal rating IPOHE” value ([3]; rate 0.0313 kg/ha) was 2.0 and the “Preemergence herbicidal rating IPOHE” value ([3]; rate 0.0625 kg/ha) was 5.0. For the same compound, the “Preemergence herbicidal rating IPOHE” value ([3]; rate 0.1250 kg/ha) was 8.0, the “Preemergence herbicidal rating IPOHE” value ([3]; rate 0.2500 kg/ha) was 8.0 and the “Preemergence herbicidal rating IPOHE” value ([3]; rate 0.5000 kg/ha) was 9.0. For the same compound, the “MOOVA herbicidal effect rating” value ([4]; 0.0313 kg/ha) was 7.0, the “MOOVA herbicidal effect rating” value ([4]; 0.0625 kg/ha) was 9.0 and the “MOOVA herbicidal effect rating” value ([4]; 0.1250 kg/ha) was 9.0. The “MOOVA herbicidal effect rating” value ([4]; 0.2500 kg/ha) was 9.0, the “Preemergence herbicidal rating CHEAL” value ([5]; rate 0.0156 kg/ha) was 9.0 and the “Preemergence herbicidal rating CHEAL” value ([5]; rate 0.0313 kg/ha) was 9.0. For the same compound, the “Preemergence herbicidal rating CHEAL” value ([5]; rate 0.0625 kg/ha) was 9.0, the “Preemergence herbicidal rating CHEAL” value ([5]; rate 0.1250 kg/ha) was 9.0 and the “Preemergence herbicidal rating CHEAL” value ([5]; rate 0.2500 kg/ha) was 9.0. For the same compound, the “Preemergence herbicidal rating CHEAL” value ([5]; rate 0.5000 kg/ha) was 9.0, the “Herbicidal rating CYPIR” value ([6]; Rate 0.0313 kg/ha) was 0.0 and the “Herbicidal rating CYPIR” value ([6]; Rate 0.0625 kg/ha) was 2.0. The “Herbicidal rating CYPIR” value ([6]; Rate 0.1250 kg/ha) was 4.0, the “Herbicidal rating CYPIR” value ([6]; Rate 0.2500 kg/ha) was 7.0 and the “Herbicidal rating ECHORC” value ([7]; Rate 0.0313 kg/ha) was 2.0. For the same compound, the “Herbicidal rating ECHORC” value ([7]; Rate 0.0625 kg/ha) was 2.0, the “Herbicidal rating ECHORC” value ([7]; Rate 0.1250 kg/ha) was 7.0 and the “Herbicidal rating ECHORC” value ([7]; Rate 0.2500 kg/ha) was 9.0. For the same compound, the “Preemergence herbicidal rating TRZAWR” value ([8]; rate 0.0156 kg/ha) was 0.0, the “Preemergence herbicidal rating TRZAWR” value ([8]; rate 0.0313 kg/ha) was 1.0 and the “Preemergence herbicidal rating TRZAWR” value ([8]; rate 0.0625 kg/ha) was 1.0. The “Preemergence herbicidal rating TRZAWR” value ([8]; rate 0.1250 kg/ha) was 6.0, the “Preemergence herbicidal rating TRZAWR” value ([8]; rate 0.2500 kg/ha) was 4.0 and the “Preemergence herbicidal rating ORYSAT” value ([9]; rate 0.0156 kg/ha) was 0.0. The “Preemergence herbicidal rating ORYSAT” value ([9]; rate 0.0313 kg/ha) was 1.0, the “Preemergence herbicidal rating ORYSAT” value ([9]; rate 0.0625 kg/ha) was 2.0 and the “Preemergence herbicidal rating ORYSAT” value ([9]; rate 0.1250 kg/ha) was 4.0. The “Preemergence herbicidal rating ORYSAT” value ([9]; rate 0.2500 kg/ha) was 5.0, the “Preemergence herbicidal rating ORYSAT” value ([9]; rate 0.5000 kg/ha) was 6.0 and the “herbicidal rating TRZAWR” value ([10]; rate 0.0158 kg/ha) was 3.0. The “herbicidal rating TRZAWR” value ([10]; rate 0.0315 kg/ha) was 4.0, the “herbicidal rating TRZAWR” value ([10]; rate 0.0630 kg/ha) was 4.5 and the “ECHORC herbicidal effect rating” value ([11]; 0.0313 kg/ha) was 9.0. The “ECHORC herbicidal effect rating” value ([11]; 0.0625 kg/ha) was 9.0, the “ECHORC herbicidal effect rating” value ([11]; 0.1250 kg/ha) was 9.0 and the “ECHORC herbicidal effect rating” value ([11]; 0.2500 kg/ha) was 9.0. For the same compound, the “herbicidal rating IPOHE” value ([12]; rate 0.0158 kg/ha) was 9.0, the “herbicidal rating IPOHE” value ([12]; rate 0.0315 kg/ha) was 9.0 and the “herbicidal rating IPOHE” value ([12]; rate 0.0630 kg/ha) was 9.0. The “Preemergence herbicidal rating ECHCG” value ([13]; rate 0.0156 kg/ha) was 1.5, the “Preemergence herbicidal rating ECHCG” value ([13]; rate 0.0313 kg/ha) was 2.5 and the “Preemergence herbicidal rating ECHCG” value ([13]; rate 0.0625 kg/ha) was 4.0. For the same compound, the “Preemergence herbicidal rating ECHCG” value ([13]; rate 0.1250 kg/ha) was 7.0, the “Preemergence herbicidal rating ECHCG” value ([13]; rate 0.2500 kg/ha) was 8.5 and the “Preemergence herbicidal rating ECHCG” value ([13]; rate 0.5000 kg/ha) was 9.0.
With `CCOC(=O)CN1C(=O)C(CC(=O)OC(C)C(=O)OCC)S/C1=N/c1cc(-n2c(=O)cc(C(F)(F)F)n(C)c2=O)c(F)cc1Cl` (centres unmarked) [Compound 87] the ABUTH herbicidal rating ([1]; rate 0.0156 kg/ha) was 2.0, the ABUTH herbicidal rating ([1]; rate 0.0313 kg/ha) was 4.0 and the ABUTH herbicidal rating ([1]; rate 0.0625 kg/ha) was 9.0. For the same compound, the ABUTH herbicidal rating ([1]; rate 0.1250 kg/ha) was 9.0, the ABUTH herbicidal rating ([1]; rate 0.2500 kg/ha) was 9.0 and the SETVI rating ([2]; 0.1250 kg/ha) was 0.0. For the same compound, the SETVI rating ([2]; 0.2500 kg/ha) was 0.0, the SETVI rating ([2]; 0.5000 kg/ha) was 9.0 and the IPOHE rating ([3]; 0.1250 kg/ha) was 1.0. For the same compound, the IPOHE rating ([3]; 0.2500 kg/ha) was 5.0, the IPOHE rating ([3]; 0.5000 kg/ha) was 6.0 and the “MOOVA herbicidal effect rating” value ([4]; 0.0313 kg/ha) was 9.0. The “MOOVA herbicidal effect rating” value ([4]; 0.0625 kg/ha) was 9.0, the “MOOVA herbicidal effect rating” value ([4]; 0.1250 kg/ha) was 9.0 and the “MOOVA herbicidal effect rating” value ([4]; 0.2500 kg/ha) was 9.0. The “MOOVA herbicidal effect rating” value ([4]; 0.5000 kg/ha) was 9.0, the CHEAL rating ([5]; 0.1250 kg/ha) was 4.0 and the CHEAL rating ([5]; 0.2500 kg/ha) was 9.0. The CHEAL rating ([5]; 0.5000 kg/ha) was 9.0, the “Herbicidal rating CYPIR” value ([6]; Rate 0.0313 kg/ha) was 5.0 and the “Herbicidal rating CYPIR” value ([6]; Rate 0.0625 kg/ha) was 5.0. For the same compound, the “Herbicidal rating CYPIR” value ([6]; Rate 0.1250 kg/ha) was 5.0, the “Herbicidal rating CYPIR” value ([6]; Rate 0.2500 kg/ha) was 5.0 and the “Herbicidal rating CYPIR” value ([6]; Rate 0.5000 kg/ha) was 7.0. For the same compound, the “Herbicidal rating ECHORC” value ([7]; Rate 0.0313 kg/ha) was 0.0, the “Herbicidal rating ECHORC” value ([7]; Rate 0.0625 kg/ha) was 0.0 and the “Herbicidal rating ECHORC” value ([7]; Rate 0.1250 kg/ha) was 2.0. The “Herbicidal rating ECHORC” value ([7]; Rate 0.2500 kg/ha) was 3.0, the “Herbicidal rating ECHORC” value ([7]; Rate 0.5000 kg/ha) was 3.0 and the TRZAWR rating ([8]; 0.1250 kg/ha) was 0.0. For the same compound, the TRZAWR rating ([8]; 0.2500 kg/ha) was 0.0, the TRZAWR rating ([8]; 0.5000 kg/ha) was 1.0 and the ORYSAT rating ([9]; 0.1250 kg/ha) was 0.0. For the same compound, the ORYSAT rating ([9]; 0.2500 kg/ha) was 0.0, the ORYSAT rating ([9]; 0.5000 kg/ha) was 0.0 and the TRZAWR herbicidal rating ([10]; rate 0.0156 kg/ha) was 2.5. For the same compound, the TRZAWR herbicidal rating ([10]; rate 0.0313 kg/ha) was 3.0, the TRZAWR herbicidal rating ([10]; rate 0.0625 kg/ha) was 4.5 and the TRZAWR herbicidal rating ([10]; rate 0.1250 kg/ha) was 4.5. The TRZAWR herbicidal rating ([10]; rate 0.2500 kg/ha) was 6.0, the “ECHORC herbicidal effect rating” value ([11]; 0.0313 kg/ha) was 0.0 and the “ECHORC herbicidal effect rating” value ([11]; 0.0625 kg/ha) was 0.0. The “ECHORC herbicidal effect rating” value ([11]; 0.1250 kg/ha) was 2.0, the “ECHORC herbicidal effect rating” value ([11]; 0.2500 kg/ha) was 3.0 and the “ECHORC herbicidal effect rating” value ([11]; 0.5000 kg/ha) was 3.0. For the same compound, the IPOHE herbicidal rating ([12]; rate 0.0156 kg/ha) was 9.0, the IPOHE herbicidal rating ([12]; rate 0.0313 kg/ha) was 9.0 and the IPOHE herbicidal rating ([12]; rate 0.0625 kg/ha) was 9.0. It also gave an IPOHE herbicidal rating ([12]; rate 0.1250 kg/ha) of 9.0, an IPOHE herbicidal rating ([12]; rate 0.2500 kg/ha) of 9.0 and an ECHCG rating ([13]; 0.1250 kg/ha) of 0.0. It also gave an ECHCG rating ([13]; 0.2500 kg/ha) of 0.0 and an ECHCG rating ([13]; 0.5000 kg/ha) of 0.0.
